Source: US8206722B2, “Somatostatin receptor antagonists and glucose control or hypoglycemia” (The Governing Council of the University of Toronto, priority 2007, dated 2012)
Values belong to the substance of their own block, whether it stands above or below them.

What was measured:
SSTR-2 = SSTR-2 (Homo sapiens, UniProt P30874); conditions: antagonist at SSTR-2, cited from earlier work
[1] = tested on: non-diabetic and STZ-diabetic rats; experiment: Insulin-induced hypoglycemic glucose clamp with SSTR antagonist infusion in non-diabetic and STZ-diabetic rats; assay type: in vivo, rat
Experimental: FIG. 1 indicates levels of plasma glucose levels in four groups of rats during the 1-h SSTR antagonist/saline pretreatment and 3-h hypoglycemic clamp experiment. […] A similar glycemic profile is observed in FIG. 1B when another dose of insulin and SSTR antagonist (DC-41-33) were tested (5 U/kg and 3000 nmol/kg/h, respectively).
Non-diabetic and STZ-diabetic rats were injected with insulin (10 U/kg and 5 U/kg). These doses yielded reproducible responses of plasma glucose (FIG. 1). In diabetic rats, plasma glucose is elevated approximately 3- to 4-fold before hypoglycemia is induced. A subcutaneous injection of insulin was given immediately after the sample was taken at time 0 in all groups of rats to induce hypoglycemia. Plasma glucose levels dropped to the same target hypoglycemia (2.75±0.25 mM) in both non-diabetic and diabetic rats. […] This technique of glucose clamping is a well-established method in diabetes research which allows precise comparison between different groups at a specific glycemic level.
This technique is referred to as the “glucose clamp” and is achieved by intravenously infusing glucose whenever necessary.

[2] = tested on: isolated, perfused pancreas; conditions: perfused pancreas of non-diabetic rats; cited from earlier work
non-diabetic rats = conditions: cited from earlier work
isolated islets = isolated islets and perifused isolated islets; reversed dose-dependently by added somatostatin; cited from earlier work

Chain of SSTR-2 (P30874 whole entry, species assumed, the tested form may be a part): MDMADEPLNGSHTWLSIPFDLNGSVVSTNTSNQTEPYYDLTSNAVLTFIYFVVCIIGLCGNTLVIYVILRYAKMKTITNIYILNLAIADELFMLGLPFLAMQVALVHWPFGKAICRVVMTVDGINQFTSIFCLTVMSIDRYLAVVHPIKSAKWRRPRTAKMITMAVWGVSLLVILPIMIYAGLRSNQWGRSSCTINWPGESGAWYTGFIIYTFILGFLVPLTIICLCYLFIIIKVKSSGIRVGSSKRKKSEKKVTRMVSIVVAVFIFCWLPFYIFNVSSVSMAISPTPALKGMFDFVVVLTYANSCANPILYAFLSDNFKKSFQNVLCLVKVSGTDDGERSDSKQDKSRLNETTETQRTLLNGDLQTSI

Substance: H-Cpa-cyclo[Cys-Pal-DTrp-Lys-Ile-Cys]-Nal-NH2 [PRL-2915]
Affinity (nM), Units pKi (SSTR-2): 7.9 pKi

Substance: H-Cpa-cyclo[DCys-Tyr-DTrp-Lys-Thr-Cys]-Nal-NH2 (XCYWKTCX; Cpa, Nal, D-residues, cyclic disulfide, C-terminal amide; Synthetic - PRL-2970)
Affinity (nM), Units pKi (SSTR-2): 7.6 pKi

plasma epinephrine levels during basal infusion of antagonist ([1]; basal infusion before insulin, antagonist 1500 nmol/kg/h, FIG. 7): did not affect plasma epinephrine levels
growth hormone (GH) levels ([1]; diabetic rats, regardless of hypoglycemia, insulin 5 U/kg, antagonist 3000 nmol/kg/h, FIG. 9): did not affect GH levels
plasma norepinephrine during basal infusion and insulin-induced hypoglycemia ([1]; insulin 10 U/kg, antagonist 1500 nmol/kg/h, FIG. 8): no effect
Substance: H-Fpa-cyclo[DCys-Pal-DTrp-Lys-Tle-Cys]-Nal-NH2 [DC-41-33]
IC50 (SSTR-2; Units column prints pIC50, read-out: Affinity (nM), Units pIC50 (converted)): 27.4 nM
peak glucagon response to hypoglycemia, increase ([1]; diabetic rats, insulin 5 U/kg, antagonist 3000 nmol/kg/h, FIG. 3): ~7 fold
corticosterone response to hypoglycemia ([1]; diabetic rats, insulin 5 U/kg, antagonist 3000 nmol/kg/h, FIG. 5): fully normalized
plasma glucagon before insulin and throughout hypoglycemia ([1]; diabetic rats, insulin 10 U/kg, antagonist 1500 nmol/kg/h, FIG. 2): glucagon was increased
increase in plasma epinephrine levels (AUC) in response to hypoglycemia ([1]; diabetic rats, insulin 10 U/kg, antagonist 1500 nmol/kg/h, FIG. 7): 4 fold
glucose infusion requirement during 3 h hypoglycemic clamp ([1]; non-diabetic and diabetic rats versus untreated controls, insulin 5 U/kg, antagonist 3000 nmol/kg/h, FIG. 6): less glucose infusion was necessary
corticosterone response to hypoglycemia ([1]; non-diabetic and diabetic rats, insulin 10 U/kg, antagonist 1500 nmol/kg/h, FIG. 4): augmented to the same extent
corticosterone response to hypoglycemia ([1]; non-diabetic and diabetic rats, insulin 10 U/kg, antagonist 1500 nmol/kg/h, FIG. 4, listed as SSTR2 antagonist): increases in the corticosterone response
increase in plasma glucagon induced by insulin, with versus without antagonist ([1]; non-diabetic rats, insulin 10 U/kg, antagonist 1500 nmol/kg/h, FIG. 2): 3 fold
glucagon secretion [2]: enhances glucagon secretion
insulin secretion [2]: without affecting insulin secretion
reversal of inhibition by GIP, GIP-(1-30)NH2 and GLP-1(7-36)NH2 of pentagastrin-stimulated gastric acid secretion (non-diabetic rats): able to reverse the inhibitory effect
glucagon secretion to an arginine stimulus (isolated islets): dose-dependently increases glucagon secretion

Substance: HFIRWF [AC-178,335, Ac-His-Phe-Ile-Arg-Trp-Phe-NH2]
Affinity (nM), Units pKi (SSTR-2): 6.8 pKi
